Assay results reported in ChEMBL document CHEMBL3727350, “Agents and methods for treating ischemic and other diseases” (2014).
Activity calls are given as the source filed them. The calls are words filed in the database; no cut-off is given here.

Key:
[1] = system: U2OS; assay: Inhibition of cell proliferation of human U2OS cells at 10 uM incubated for 48 to 96 hrs; type: functional
[2] = system: MCF7; assay: Inhibition of cell proliferation of human MCF7 cells at 10 uM incubated for 48 to 96 hrs; type: functional
[3] = biological target: Transient receptor potential cation channel subfamily M member 7 (Mus musculus) (UniProt Q923J1); assay: Inhibition of TRPM7 in mouse primary neuronal cells exposed to oxygen glucose deprivation condition for 1 to 3 hrs assessed as reduction in TRPM7-mediated anoxic cell death dosed before oxygen glucose deprivation condition by propidium iodide uptake assay; conditions: Primary neuron
Sequence of Transient receptor potential cation channel subfamily M member 7 (Mus musculus) (Q923J1 whole entry): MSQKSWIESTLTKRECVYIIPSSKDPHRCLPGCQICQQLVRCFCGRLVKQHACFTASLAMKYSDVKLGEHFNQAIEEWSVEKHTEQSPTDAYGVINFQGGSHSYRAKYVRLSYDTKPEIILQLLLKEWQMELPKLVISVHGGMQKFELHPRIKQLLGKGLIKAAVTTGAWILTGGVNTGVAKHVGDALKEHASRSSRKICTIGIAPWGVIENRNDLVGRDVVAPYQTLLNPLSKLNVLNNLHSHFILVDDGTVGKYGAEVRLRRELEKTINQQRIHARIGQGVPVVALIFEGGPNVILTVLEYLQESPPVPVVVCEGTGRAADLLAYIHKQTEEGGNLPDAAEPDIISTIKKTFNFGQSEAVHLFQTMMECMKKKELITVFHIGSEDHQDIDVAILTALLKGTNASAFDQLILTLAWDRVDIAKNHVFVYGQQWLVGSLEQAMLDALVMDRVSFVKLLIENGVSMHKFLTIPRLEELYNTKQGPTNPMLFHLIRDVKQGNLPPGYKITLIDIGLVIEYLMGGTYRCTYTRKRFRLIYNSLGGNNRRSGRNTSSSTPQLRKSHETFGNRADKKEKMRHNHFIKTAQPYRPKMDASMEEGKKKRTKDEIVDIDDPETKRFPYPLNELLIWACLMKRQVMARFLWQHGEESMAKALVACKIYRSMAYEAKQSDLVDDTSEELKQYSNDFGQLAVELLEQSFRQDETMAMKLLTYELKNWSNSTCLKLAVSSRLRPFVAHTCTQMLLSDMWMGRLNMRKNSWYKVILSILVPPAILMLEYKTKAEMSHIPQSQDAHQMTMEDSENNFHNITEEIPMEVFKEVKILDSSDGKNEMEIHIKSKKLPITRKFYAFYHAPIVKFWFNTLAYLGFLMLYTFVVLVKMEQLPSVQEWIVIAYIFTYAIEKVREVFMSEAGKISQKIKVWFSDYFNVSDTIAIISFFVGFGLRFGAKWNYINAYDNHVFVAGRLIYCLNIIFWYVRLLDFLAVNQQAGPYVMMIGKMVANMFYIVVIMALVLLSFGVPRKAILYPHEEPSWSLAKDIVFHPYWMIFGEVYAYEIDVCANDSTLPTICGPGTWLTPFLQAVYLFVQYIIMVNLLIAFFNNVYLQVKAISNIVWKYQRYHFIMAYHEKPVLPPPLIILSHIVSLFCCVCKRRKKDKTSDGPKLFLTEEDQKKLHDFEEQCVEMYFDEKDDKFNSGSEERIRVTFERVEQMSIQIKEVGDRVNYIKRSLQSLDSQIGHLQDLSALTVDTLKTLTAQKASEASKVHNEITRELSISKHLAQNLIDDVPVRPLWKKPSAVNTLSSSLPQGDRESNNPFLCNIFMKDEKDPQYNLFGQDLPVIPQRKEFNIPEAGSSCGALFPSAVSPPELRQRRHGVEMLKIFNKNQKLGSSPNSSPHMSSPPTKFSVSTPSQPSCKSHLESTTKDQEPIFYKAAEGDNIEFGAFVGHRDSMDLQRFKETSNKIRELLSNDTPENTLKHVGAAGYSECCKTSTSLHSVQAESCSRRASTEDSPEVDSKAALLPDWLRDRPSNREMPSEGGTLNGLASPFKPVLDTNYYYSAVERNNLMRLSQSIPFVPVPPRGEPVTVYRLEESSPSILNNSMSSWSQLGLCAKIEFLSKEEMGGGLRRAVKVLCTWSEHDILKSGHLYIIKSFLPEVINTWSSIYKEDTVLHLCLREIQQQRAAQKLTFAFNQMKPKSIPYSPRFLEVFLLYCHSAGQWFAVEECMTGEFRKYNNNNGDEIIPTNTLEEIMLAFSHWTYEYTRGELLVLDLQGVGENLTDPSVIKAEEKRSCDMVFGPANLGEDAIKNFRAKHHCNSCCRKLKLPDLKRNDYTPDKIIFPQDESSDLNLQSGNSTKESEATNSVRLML

[4] = biological target: Transient receptor potential cation channel subfamily M member 7 (Mus musculus) (UniProt Q923J1); assay: Inhibition of Tet-induced Flag-tagged mouse TRPM7 expressed in HEK293 cells assessed as reduction in channel currents at 0.3 to 30 uM by whole cell patch clamp assay; type: cell-based
[5] = system: MDA-MB-231; assay: Inhibition of cell proliferation of human MDA-MB-231 cells at 10 uM incubated for 48 to 96 hrs; type: functional
[6] = biological target: Transient receptor potential cation channel subfamily M member 7 (Rattus norvegicus) (UniProt Q925B3); assay: Inhibition of TRPM7 in cultured rat retinal ganglion cells exposed to oxygen glucose deprivation condition for 3 hrs assessed as protection against TRPM7-mediated cell death at by propidium iodide uptake assay; set-up: scale not given: the % may be the effect or the level left
Sequence of Transient receptor potential cation channel subfamily M member 7 (Rattus norvegicus) (Q925B3 whole entry): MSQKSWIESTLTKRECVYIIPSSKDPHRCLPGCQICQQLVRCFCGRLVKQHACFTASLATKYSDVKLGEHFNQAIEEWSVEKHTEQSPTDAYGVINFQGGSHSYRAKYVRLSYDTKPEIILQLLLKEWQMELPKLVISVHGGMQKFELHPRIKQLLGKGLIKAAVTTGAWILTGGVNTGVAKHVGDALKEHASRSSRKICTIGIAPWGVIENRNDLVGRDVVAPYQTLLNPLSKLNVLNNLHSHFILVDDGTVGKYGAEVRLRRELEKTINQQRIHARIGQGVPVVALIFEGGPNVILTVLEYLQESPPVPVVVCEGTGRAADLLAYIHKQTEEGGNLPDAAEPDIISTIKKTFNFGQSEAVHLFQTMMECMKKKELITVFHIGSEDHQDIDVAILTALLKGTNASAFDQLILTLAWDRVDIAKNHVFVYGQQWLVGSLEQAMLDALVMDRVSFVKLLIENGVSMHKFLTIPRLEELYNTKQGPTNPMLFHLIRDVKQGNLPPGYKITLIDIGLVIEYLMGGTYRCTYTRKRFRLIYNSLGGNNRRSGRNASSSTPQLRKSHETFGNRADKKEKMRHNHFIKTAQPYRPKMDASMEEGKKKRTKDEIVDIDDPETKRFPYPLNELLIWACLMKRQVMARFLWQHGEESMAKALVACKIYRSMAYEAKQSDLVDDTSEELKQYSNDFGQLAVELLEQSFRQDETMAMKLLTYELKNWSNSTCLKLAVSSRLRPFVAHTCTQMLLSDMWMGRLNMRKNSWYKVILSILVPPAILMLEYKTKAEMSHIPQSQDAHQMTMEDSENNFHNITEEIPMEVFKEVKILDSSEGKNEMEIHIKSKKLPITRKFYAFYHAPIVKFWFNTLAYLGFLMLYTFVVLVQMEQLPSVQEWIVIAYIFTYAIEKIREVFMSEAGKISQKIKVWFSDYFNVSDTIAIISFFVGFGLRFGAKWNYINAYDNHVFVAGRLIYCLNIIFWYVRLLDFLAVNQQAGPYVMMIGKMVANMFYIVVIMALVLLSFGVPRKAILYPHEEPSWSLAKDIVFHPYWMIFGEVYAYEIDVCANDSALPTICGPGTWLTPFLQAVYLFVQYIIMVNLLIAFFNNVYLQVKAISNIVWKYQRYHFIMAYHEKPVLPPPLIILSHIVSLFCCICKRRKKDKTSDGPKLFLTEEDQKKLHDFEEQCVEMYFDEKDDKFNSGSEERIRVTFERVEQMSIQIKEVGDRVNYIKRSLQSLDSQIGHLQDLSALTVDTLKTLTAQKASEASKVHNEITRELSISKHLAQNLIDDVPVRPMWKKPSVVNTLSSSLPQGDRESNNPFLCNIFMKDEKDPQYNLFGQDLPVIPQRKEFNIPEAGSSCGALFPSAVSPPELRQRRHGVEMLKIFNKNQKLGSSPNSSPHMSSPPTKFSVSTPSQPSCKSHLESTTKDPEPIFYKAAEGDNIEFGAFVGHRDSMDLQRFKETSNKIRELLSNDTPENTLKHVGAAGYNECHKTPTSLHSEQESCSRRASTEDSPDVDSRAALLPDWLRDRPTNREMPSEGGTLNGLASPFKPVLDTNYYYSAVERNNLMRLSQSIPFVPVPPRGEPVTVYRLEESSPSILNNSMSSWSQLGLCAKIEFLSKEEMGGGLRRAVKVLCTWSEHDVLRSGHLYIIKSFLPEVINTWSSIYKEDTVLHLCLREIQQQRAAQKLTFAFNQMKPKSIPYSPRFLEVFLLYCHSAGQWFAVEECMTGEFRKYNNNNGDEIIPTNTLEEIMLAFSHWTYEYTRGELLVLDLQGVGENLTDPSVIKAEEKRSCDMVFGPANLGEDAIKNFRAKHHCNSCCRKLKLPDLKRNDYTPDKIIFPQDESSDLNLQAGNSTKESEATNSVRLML

[7] = biological target: Transient receptor potential cation channel subfamily M member 7 (Rattus norvegicus) (UniProt Q925B3); assay: Inhibition of TRPM7 in Sprague-Dawley rat retinal explants dissociated and subjected to 1 hr oxygen-glucose deprivation assessed as reduction in retinal cell death at 1 and 5 uM
[8] = organism: Mus musculus; assay: Inhibition of potassium channel in mouse cortical neurons assessed as reduction in potassium currents
[9] = system: H9c2; assay: Toxicity against rat H9c2 cells at 5 uM; type: cell-based; conditions: h9c2, 5 µM
[10] = biological target: Transient receptor potential cation channel subfamily M member 7 (Rattus norvegicus) (UniProt Q925B3); assay: Inhibition of TRPM7 in rat retinal explants exposed to oxygen glucose deprivation condition for 1 hr assessed as protection against TRPM7-mediated cell death at by propidium iodide uptake assay
[11] = system: HeLa; assay: Inhibition of cell proliferation of human HeLa cells at 10 uM incubated for 48 to 96 hrs; type: functional
[12] = biological target: Transient receptor potential cation channel subfamily M member 7 (Rattus norvegicus) (UniProt Q925B3); assay: Inhibition of TRPM7 in rat H9C2 cells assessed as reduction in channel currents at 0.3 to 30 uM by whole cell patch clamp assay; type: cell-based
[13] = system: MDA-MB-231; assay: Inhibition of cell proliferation of human MDA-MB-231 cells at 1.25 to 10 uM incubated for 72 hrs by SRB assay; type: functional, cell-based
[14] = Inhibition of cell proliferation of mouse B16-F1 cells at 10 uM incubated for 48 to 96 hrs; type: functional
[15] = system: H9c2; assay: Toxicity against rat H9c2 cells at 10 uM; type: cell-based; conditions: h9c2, 10 µM
[16] = biological target: Transient receptor potential cation channel subfamily M member 7 (Rattus norvegicus) (UniProt Q925B3); assay: Inhibition of TRPM7 in rat H9C2 cells exposed to oxygen glucose deprivation condition for 1 to 6 hrs assessed as reduction in TRPM7-mediated anoxic cell death in presence of 1 uM nifedipine by propidium iodide uptake assay; type: cell-based
[17] = Inhibition of cell proliferation of mouse B16F10 cells at 10 uM incubated for 48 to 96 hrs; type: functional; conditions: B16-F10
[18] = biological target: Transient receptor potential cation channel subfamily M member 7 (Mus musculus) (UniProt Q923J1); assay: Inhibition of TRPM7 in mouse mouse primary cortical neurons exposed to 2 hrs oxygen glucose deprivation condition assessed as reduction in TRPM7-mediated anoxic cell death measured after 20 hrs by propidium iodide uptake assay; type: cell-based; conditions: Cerebral cortex neuron
[19] = system: SW13; assay: Inhibition of cell proliferation of human SW13 cells at 10 uM incubated for 48 to 96 hrs; type: functional
[20] = biological target: Transient receptor potential cation channel subfamily M member 7 (Mus musculus) (UniProt Q923J1); assay: Inhibition of TRPM7 in mouse primary neuronal cells exposed to oxygen glucose deprivation condition for 1 to 3 hrs assessed as reduction in TRPM7-mediated anoxic cell death dosed after oxygen glucose deprivation condition by propidium iodide uptake assay; conditions: Primary neuron
[21] = system: SW13; assay: Inhibition of cell proliferation of human SW13 cells at 1.25 to 10 uM incubated for 72 hrs by SRB assay; type: functional, cell-based
[22] = biological target: Transient receptor potential cation channel subfamily M member 7 (Mus musculus) (UniProt Q923J1); assay: Inhibition of Tet-induced Flag-tagged mouse TRPM7 expressed in HEK293 cells assessed as inhibition of channel-mediated cell death in presence of Mg2+ incubated for 24 to 48 hrs by propidium iodide uptake assay; type: cell-based; set-up: concentration or dose not given beside the values; conditions: concentration not given here
[23] = Inhibition of cell proliferation of human DMS53 cells at 10 uM incubated for 48 to 96 hrs; type: functional; conditions: DMS-53
[24] = system: B16-F1; assay: Inhibition of cell proliferation of mouse B16-F1 cells at 1.25 to 10 uM incubated for 72 hrs by SRB assay; type: functional, cell-based
[25] = system: Y79; assay: Inhibition of cell proliferation of human Y79 cells at 10 uM incubated for 48 to 96 hrs; type: functional
[26] = system: B16-F10; assay: Inhibition of cell proliferation of mouse B16F10 cells at 1.25 to 10 uM incubated for 72 hrs by SRB assay; type: functional, cell-based
[27] = organism: Mus musculus; assay: Inhibition of sodium channel in mouse cortical neurons assessed as effect on Na+ currents
[28] = organism: Mus musculus; assay: Inhibition of calcium channel in mouse cortical neurons assessed as effect on Ca2+ currents; type: functional
[29] = biological target: Transient receptor potential cation channel subfamily M member 7 (Rattus norvegicus) (UniProt Q925B3); assay: Inhibition of TRPM7 in Sprague-Dawley rat retinal explants subjected to 1 hr oxygen-glucose deprivation assessed as reduction in retinal ischemia at 5 uM
[30] = Inhibition of cell proliferation of mouse NIH/3T3 cells at 1.25 to 10 uM incubated for 72 hrs by propidium iodide staining assay; type: cell-based; conditions: nih3t3, 72 h

In the case of O=C(Nc1ccc(F)cc1)C(Sc1ccc(Cl)cc1)c1ccccc1 (stereo not given), the inhibition at 10 µM [1] is reported as over 20%, the inhibition at 10 µM [2] is reported as over 20% and the inhibition [3] is reported as “Active”. The inhibition [4] was “Active”, the inhibition at 10 µM [5] was over 20% and the Activity [6] was 66%. For the same compound, the inhibition [7] was “Active”, the inhibition [8] was “Active” and the Activity [9] was “Non-toxic”. For the same compound, the inhibition [10] was “Active”, the inhibition at 10 µM [11] was over 20% and the inhibition [12] was “Active”. For the same compound, the inhibition [13] was “Active”, the inhibition at 10 µM [14] was over 20% and the Activity [15] was “Toxic”. The inhibition [16] was “Active”, the inhibition at 10 µM [17] was over 20% and the inhibition [18] was “Active”. The inhibition at 10 µM [19] was over 20%, the inhibition [20] was “Active” and the inhibition [21] was “Active”. For the same compound, the inhibition [22] was 80%, the inhibition at 10 µM [23] was over 20% and the inhibition [24] was “Active”. For the same compound, the inhibition at 10 µM [25] was over 20%, the inhibition [26] was “Active” and the inhibition [27] was “inactive”. The inhibition [28] was “inactive”, the inhibition [29] was “Active” and the Activity [30] was “Non-toxic”.
